Test results: ChEMBL document CHEMBL6121063, “Identification of a Potent and Selective CDK9 Degrader as a Targeted Therapeutic Option for the Treatment of Small-Cell Lung Cancer” (J Med Chem, 2025)
pIC50: −log10 of the molar value.

Tests used:
[1] = biological target: Cyclin-dependent kinase 3 (Homo sapiens, UniProt Q00526); assay: Inhibition of CDK3 (unknown origin)
[2] = biological target: Cyclin-dependent kinase 5 (Homo sapiens, UniProt Q00535)
[3] = biological target: Cyclin-dependent kinase 2 (Homo sapiens, UniProt P24941); assay: Inhibition of CDK2 (unknown origin)
[4] = biological target: Cyclin-dependent kinase 4 (Homo sapiens, UniProt P11802); assay: Inhibition of CDK4 (unknown origin)
Cyclin-dependent kinase 4, sequence (P11802 whole entry): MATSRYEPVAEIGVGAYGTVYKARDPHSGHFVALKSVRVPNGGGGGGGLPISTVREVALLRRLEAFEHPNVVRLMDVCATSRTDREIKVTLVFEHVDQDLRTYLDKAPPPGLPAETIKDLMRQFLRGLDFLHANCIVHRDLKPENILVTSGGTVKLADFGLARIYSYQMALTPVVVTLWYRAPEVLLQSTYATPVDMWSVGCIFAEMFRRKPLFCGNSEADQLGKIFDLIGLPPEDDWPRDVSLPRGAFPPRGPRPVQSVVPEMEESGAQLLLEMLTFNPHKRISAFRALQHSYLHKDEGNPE

[5] = biological target: Cyclin-dependent kinase 1 (Homo sapiens, UniProt P06493)
Cyclin-dependent kinase 1, sequence (P06493 whole entry): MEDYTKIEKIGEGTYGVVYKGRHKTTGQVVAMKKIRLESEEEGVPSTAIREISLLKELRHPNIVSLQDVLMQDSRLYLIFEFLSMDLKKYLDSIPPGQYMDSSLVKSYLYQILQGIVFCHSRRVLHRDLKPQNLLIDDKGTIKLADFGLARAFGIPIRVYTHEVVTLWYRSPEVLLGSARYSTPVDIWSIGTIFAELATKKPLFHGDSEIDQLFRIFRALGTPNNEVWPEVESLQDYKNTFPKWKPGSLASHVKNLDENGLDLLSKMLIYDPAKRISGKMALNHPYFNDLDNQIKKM

Measured: pIC50

Cyclin-dependent kinase 5, sequence (Q00535 whole entry): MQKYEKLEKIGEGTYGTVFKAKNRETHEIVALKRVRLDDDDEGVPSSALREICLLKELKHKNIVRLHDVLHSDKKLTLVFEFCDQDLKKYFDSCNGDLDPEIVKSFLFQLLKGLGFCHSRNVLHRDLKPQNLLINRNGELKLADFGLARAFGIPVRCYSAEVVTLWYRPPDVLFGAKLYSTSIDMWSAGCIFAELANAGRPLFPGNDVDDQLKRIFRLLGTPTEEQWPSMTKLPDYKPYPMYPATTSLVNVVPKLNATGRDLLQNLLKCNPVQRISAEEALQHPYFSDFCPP
Cyclin-dependent kinase 3, sequence (Q00526 whole entry): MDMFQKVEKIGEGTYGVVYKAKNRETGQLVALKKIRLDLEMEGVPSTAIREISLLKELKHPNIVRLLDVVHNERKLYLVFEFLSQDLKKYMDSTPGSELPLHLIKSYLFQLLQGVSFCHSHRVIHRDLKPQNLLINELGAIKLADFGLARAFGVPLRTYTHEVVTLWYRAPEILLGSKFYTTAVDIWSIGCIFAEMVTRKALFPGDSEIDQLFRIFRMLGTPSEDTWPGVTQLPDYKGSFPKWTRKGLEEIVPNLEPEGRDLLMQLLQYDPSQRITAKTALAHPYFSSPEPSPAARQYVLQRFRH

COCCN1CCN(Cc2ccc(-c3n[nH]c4c3C(=O)c3c(NC(=O)NN5CCOCC5)cccc3-4)cc2)CC1 [RGB-286638]
> 8.30: [1] | [2] | [3] | [4] | [5]
